Source: article PMC5218480 (PLoS ONE, 2017)

System: MV-4-11 cells
Test: Gene expression microarray analysis (Affymetrix PrimeView) and GSEA
Format: cell-based, human
Parameters: RFU PODN (11730768_x_at) / Fold change /veh PODN (11730768_x_at) / RFU LINC00158 (11744669_a_at) / Fold change /veh LINC00158 (11744669_a_at) / RFU DUSP10 (11751237_a_at) / Fold change /veh DUSP10 (11751237_a_at) / RFU ID3 (11757404_x_at) / Fold change /veh ID3 (11757404_x_at) / RFU PLEKHG5 (11737974_s_at) / Fold change /veh PLEKHG5 (11737974_s_at) / RFU LRRC4B (11730491_at) / Fold change /veh LRRC4B (11730491_at) / RFU GIMAP4 (11747438_a_at) / Fold change /veh GIMAP4 (11747438_a_at) / RFU KRT8 (11758183_x_at) / Fold change /veh KRT8 (11758183_x_at) / RFU CNN1 (11734310_a_at) / Fold change /veh CNN1 (11734310_a_at) / RFU VPS37D (11726825_at) / Fold change /veh VPS37D (11726825_at) / RFU C10orf10 (11716522_x_at) / Fold change /veh C10orf10 (11716522_x_at) / RFU KIR2DL2 /// KIR2DL4 /// KIR2DL5A /// KIR2DL5B /// KIR2DS1 /// KIR2DS2 /// KIR2DS3 /// KIR2DS4 /// KIR3DL3 /// KIR3DL3 /// KIR3DS1 (11738374_at) / Fold change /veh KIR2DL2 /// KIR2DL4 /// KIR2DL5A /// KIR2DL5B /// KIR2DS1 /// KIR2DS2 /// KIR2DS3 /// KIR2DS4 /// KIR3DL3 /// KIR3DL3 /// KIR3DS1 (11738374_at) / RFU C1QL1 (11718748_at) / Fold change /veh C1QL1 (11718748_at) / RFU TMPRSS4 (11747572_a_at) / Fold change /veh TMPRSS4 (11747572_a_at) / RFU HAMP (11756126_x_at) / Fold change /veh HAMP (11756126_x_at) / RFU RNFT2 (11725882_a_at) / Fold change /veh RNFT2 (11725882_a_at) / RFU NR4A2 (11747474_a_at) / Fold change /veh NR4A2 (11747474_a_at) / RFU ABCC12 (11746883_a_at) / Fold change /veh ABCC12 (11746883_a_at) / RFU TMEM136 (11760407_x_at) / Fold change /veh TMEM136 (11760407_x_at) / RFU CLDN22 /// WWC2 (11732394_at) / Fold change /veh CLDN22 /// WWC2 (11732394_at) / RFU HLA-DPB1 (11760878_x_at) / Fold change /veh HLA-DPB1 (11760878_x_at) / RFU SPINT1 (11716480_a_at) / Fold change /veh SPINT1 (11716480_a_at) / RFU GAP43 (11754022_s_at) / Fold change /veh GAP43 (11754022_s_at) / RFU A4GNT (11735810_at) / Fold change /veh A4GNT (11735810_at) / RFU PRB3 (11715151_x_at) / Fold change /veh PRB3 (11715151_x_at) / RFU TUBB4B (11761932_at) / Fold change /veh TUBB4B (11761932_at) / RFU CAPN14 (11732068_a_at) / Fold change /veh CAPN14 (11732068_a_at) / RFU TMCC2 (11721928_a_at) / Fold change /veh TMCC2 (11721928_a_at) / RFU IRGQ (11745062_a_at) / Fold change /veh IRGQ (11745062_a_at) / RFU FAM174B (11720279_a_at) / Fold change /veh FAM174B (11720279_a_at) / RFU TMPRSS4 (11748680_a_at) / Fold change /veh TMPRSS4 (11748680_a_at) / RFU FAM212B (11763350_a_at) / Fold change /veh FAM212B (11763350_a_at) / RFU PLEKHG5 (11743358_a_at) / Fold change /veh PLEKHG5 (11743358_a_at) / RFU ZSCAN30 (11745921_a_at) / Fold change /veh ZSCAN30 (11745921_a_at) / RFU CMKLR1 (11741424_a_at) / Fold change /veh CMKLR1 (11741424_a_at) / RFU LOC101060620 /// MAPK8IP1 (11723275_at) / Fold change /veh LOC101060620 /// MAPK8IP1 (11723275_at) / RFU SPTSSB (11747773_x_at) / Fold change /veh SPTSSB (11747773_x_at) / RFU PRSS12 (11739890_at) / Fold change /veh PRSS12 (11739890_at) / RFU BIN1 (11741810_x_at) / Fold change /veh BIN1 (11741810_x_at) / RFU WNT11 (11732464_a_at) / Fold change /veh WNT11 (11732464_a_at) / RFU C10orf10 (11716521_a_at) / Fold change /veh C10orf10 (11716521_a_at) / RFU C5orf56 (11738089_at) / Fold change /veh C5orf56 (11738089_at) / RFU CYB561 (11721691_x_at) / Fold change /veh CYB561 (11721691_x_at) / RFU ANKRD19P (11752326_a_at) / Fold change /veh ANKRD19P (11752326_a_at) / RFU OR2T12 /// OR2T33 /// OR2T8 (11738714_s_at) / Fold change /veh OR2T12 /// OR2T33 /// OR2T8 (11738714_s_at) / RFU VCAN (11748164_a_at) / Fold change /veh VCAN (11748164_a_at) / RFU JSRP1 (11732532_at) / Fold change /veh JSRP1 (11732532_at) / RFU KRTAP10-11 (11738290_x_at) / Fold change /veh KRTAP10-11 (11738290_x_at) / RFU MYO3A (11730013_a_at) / Fold change /veh MYO3A (11730013_a_at) / RFU EBF3 (11725865_a_at) / Fold change /veh EBF3 (11725865_a_at) / RFU CAMK2N1 (11719241_x_at) / Fold change /veh CAMK2N1 (11719241_x_at) / RFU C5orf56 (11738088_a_at) / Fold change /veh C5orf56 (11738088_a_at) / RFU OLFML3 (11715873_a_at) / Fold change /veh OLFML3 (11715873_a_at) / RFU LOC100653217 /// NTM (11731650_a_at) / Fold change /veh LOC100653217 /// NTM (11731650_a_at) / RFU MAPK11 (11762145_a_at) / Fold change /veh MAPK11 (11762145_a_at) / RFU FIZ1 (11724087_x_at) / Fold change /veh FIZ1 (11724087_x_at) / RFU OASL (11726364_x_at) / Fold change /veh OASL (11726364_x_at) / RFU SOX15 (11748057_x_at) / Fold change /veh SOX15 (11748057_x_at) / RFU CD79A (11719716_a_at) / Fold change /veh CD79A (11719716_a_at) / RFU HIST1H1D (11736915_at) / Fold change /veh HIST1H1D (11736915_at) / RFU CASKIN2 (11723855_a_at) / Fold change /veh CASKIN2 (11723855_a_at) / RFU LOC730098 (11760151_x_at) / Fold change /veh LOC730098 (11760151_x_at) / RFU OR4N2 (11742367_at) / Fold change /veh OR4N2 (11742367_at) / RFU PRRT2 (11749266_a_at) / Fold change /veh PRRT2 (11749266_a_at) / RFU SNX32 (11753110_a_at) / Fold change /veh SNX32 (11753110_a_at) / RFU CDHR5 (11726645_a_at) / Fold change /veh CDHR5 (11726645_a_at) / RFU RCAN1 (11760418_a_at) / Fold change /veh RCAN1 (11760418_a_at) / RFU FAM167A (11723789_a_at) / Fold change /veh FAM167A (11723789_a_at) / RFU FAM26E (11764081_at) / Fold change /veh FAM26E (11764081_at) / RFU ISYNA1 (11749810_s_at) / Fold change /veh ISYNA1 (11749810_s_at) / RFU ACY1 (11761880_at) / Fold change /veh ACY1 (11761880_at) / RFU 11764098_at / Fold change /veh 11764098_at / RFU SAMD14 (11745864_x_at) / Fold change /veh SAMD14 (11745864_x_at) / RFU NPB (11741838_a_at) / Fold change /veh NPB (11741838_a_at) / RFU TMPRSS6 (11731388_a_at) / Fold change /veh TMPRSS6 (11731388_a_at) / RFU KRTAP10-2 (11738614_at) / Fold change /veh KRTAP10-2 (11738614_at) / RFU ARHGAP8 /// PRR5-ARHGAP8 (11727945_x_at) / Fold change /veh ARHGAP8 /// PRR5-ARHGAP8 (11727945_x_at) / RFU KRTAP5-7 /// NADSYN1 (11734609_at) / Fold change /veh KRTAP5-7 /// NADSYN1 (11734609_at) / RFU RASL12 (11751679_a_at) / Fold change /veh RASL12 (11751679_a_at) / RFU CDKN2B (11736163_a_at) / Fold change /veh CDKN2B (11736163_a_at) / RFU PRF1 (11729649_at) / Fold change /veh PRF1 (11729649_at) / RFU, ZNF638 /// ZNF638-IT1 / Fold change vs veh, ZNF638 /// ZNF638-IT1 / RFU, PANK3 / Fold change vs veh, PANK3 / RFU, SH3YL1 / Fold change vs veh, SH3YL1 / RFU, ZEB2 / Fold change vs veh, ZEB2 / RFU, NRIP1 / Fold change vs veh, NRIP1 / RFU, PTTG1IP / Fold change vs veh, PTTG1IP / RFU, CAPN2 / Fold change vs veh, CAPN2 / RFU, MED14 / Fold change vs veh, MED14 / RFU, SNORA58 / Fold change vs veh, SNORA58 / RFU, C1orf63 / Fold change vs veh, C1orf63 / RFU, LRRFIP1 / Fold change vs veh, LRRFIP1 / RFU, NDUFAF7 / Fold change vs veh, NDUFAF7 / RFU, SLC12A2 / Fold change vs veh, SLC12A2 / RFU, IBTK / Fold change vs veh, IBTK / RFU, ESF1 / Fold change vs veh, ESF1 / Fold change vs veh, TMEM50B / RFU, TAOK1 / Fold change vs veh, TAOK1 / RFU, ACBD3 / Fold change vs veh, ACBD3 / RFU, TMA16 / Fold change vs veh, TMA16 / RFU, RWDD3 / Fold change vs veh, RWDD3 / RFU, BCAT1 / Fold change vs veh, BCAT1 / RFU, EDEM3 / Fold change vs veh, EDEM3 / RFU, TMEM33 / Fold change vs veh, TMEM33 / RFU, WDR75 / Fold change vs veh, WDR75 / RFU, AHCTF1 / Fold change vs veh, AHCTF1 / RFU, TFRC / Fold change vs veh, TFRC / RFU, ZDHHC17 / Fold change vs veh, ZDHHC17 / RFU, NOM1 / Fold change vs veh, NOM1 / RFU, ARL8B / Fold change vs veh, ARL8B / RFU, ZBTB11 / Fold change vs veh, ZBTB11 / RFU, TAMM41 / Fold change vs veh, TAMM41 / RFU, KIAA1704 /// LOC100996395 / Fold change vs veh, KIAA1704 /// LOC100996395 / RFU, ING1 / Fold change vs veh, ING1 / RFU, TRMT61B / Fold change vs veh, TRMT61B / RFU, FUBP3 / Fold change vs veh, FUBP3 / RFU, TP53 / Fold change vs veh, TP53 / RFU, TNKS2 / Fold change vs veh, TNKS2 / RFU, ZFP14 / Fold change vs veh, ZFP14 / RFU, ACTR2 / Fold change vs veh, ACTR2 / RFU, PPP3R1 / Fold change vs veh, PPP3R1 / RFU, PIK3R1 / Fold change vs veh, PIK3R1 / RFU, HNRNPA1 / Fold change vs veh, HNRNPA1 / RFU, RNF170 / Fold change vs veh, RNF170 / RFU, ZNF28 / Fold change vs veh, ZNF28 / RFU, RNGTT / Fold change vs veh, RNGTT / RFU, OGT / Fold change vs veh, OGT / RFU, BRD1 / Fold change vs veh, BRD1 / RFU, MARS / Fold change vs veh, MARS / RFU, ZNF655 / Fold change vs veh, ZNF655 / RFU, FAHD1 / Fold change vs veh, FAHD1 / RFU, BDP1 / Fold change vs veh, BDP1 / RFU, LRRCC1 / Fold change vs veh, LRRCC1 / RFU, ARID1A / Fold change vs veh, ARID1A / RFU, ZNF146 / Fold change vs veh, ZNF146 / RFU, ZNF330 / Fold change vs veh, ZNF330 / RFU, GPN3 / Fold change vs veh, GPN3 / RFU, C9orf123 / Fold change vs veh, C9orf123 / RFU, N4BP2L2 / Fold change vs veh, N4BP2L2 / RFU, ARFIP1 / Fold change vs veh, ARFIP1 / RFU, FAM179B / Fold change vs veh, FAM179B / RFU, BCL10 / Fold change vs veh, BCL10 / RFU, UHRF1BP1L / Fold change vs veh, UHRF1BP1L / RFU, BET1 / Fold change vs veh, BET1 / RFU, CNOT2 / Fold change vs veh, CNOT2 / RFU, ZNF268 / Fold change vs veh, ZNF268 / Fold change vs veh, ZNF507 / RFU, DGCR2 / Fold change vs veh, DGCR2 / RFU, WDSUB1 / Fold change vs veh, WDSUB1 / Fold change vs veh, HSP90B1 /// MIR3652 / RFU, ADSS / Fold change vs veh, ADSS / RFU, GK / Fold change vs veh, GK / RFU, ZNF148 / Fold change vs veh, ZNF148 / RFU, TAF9 / Fold change vs veh, TAF9 / RFU, SLC1A5 / Fold change vs veh, SLC1A5 / RFU, SLMO2 / Fold change vs veh, SLMO2 / RFU, ABCC4 / Fold change vs veh, ABCC4 / RFU, LOC101060439 /// RAP1B / Fold change vs veh, LOC101060439 /// RAP1B / RFU, RFX7 / Fold change vs veh, RFX7 / RFU, GTPBP10 / Fold change vs veh, GTPBP10 / RFU, CNEP1R1 / Fold change vs veh, CNEP1R1 / RFU, BIVM-ERCC5 /// ERCC5 / Fold change vs veh, BIVM-ERCC5 /// ERCC5 / RFU, ILF3 / Fold change vs veh, ILF3 / RFU 11762660_at / Fold change /veh 11762660_at / RFU VCAN (11757783_s_at) / Fold change /veh VCAN (11757783_s_at) / RFU DDX43 (11728927_at) / Fold change /veh DDX43 (11728927_at) / RFU KRT8 (11758188_x_at) / Fold change /veh KRT8 (11758188_x_at) / RFU NKD1 (11759106_at) / Fold change /veh NKD1 (11759106_at) / RFU SRD5A1 (11742802_a_at) / Fold change /veh SRD5A1 (11742802_a_at) / RFU TPSAB1 /// TPSB2 (11721975_s_at) / Fold change /veh TPSAB1 /// TPSB2 (11721975_s_at) / RFU GSTM3 (11746129_a_at) / Fold change /veh GSTM3 (11746129_a_at) / RFU IL23R (11737362_x_at) / Fold change /veh IL23R (11737362_x_at) / RFU TMEM51 (11727254_a_at) / Fold change /veh TMEM51 (11727254_a_at) / RFU PIWIL2 (11732686_x_at) / Fold change /veh PIWIL2 (11732686_x_at) / RFU ORM1 (11744905_x_at) / Fold change /veh ORM1 (11744905_x_at) / RFU CCDC152 (11743942_at) / Fold change /veh CCDC152 (11743942_at) / RFU ECM1 (11717891_a_at) / Fold change /veh ECM1 (11717891_a_at) / RFU IL23R (11748794_a_at) / Fold change /veh IL23R (11748794_a_at) / RFU TNFAIP8L3 (11732012_x_at) / Fold change /veh TNFAIP8L3 (11732012_x_at) / RFU MBOAT4 (11741988_at) / Fold change /veh MBOAT4 (11741988_at) / RFU 11764193_at / Fold change /veh 11764193_at / RFU TMEM53 (11763286_at) / Fold change /veh TMEM53 (11763286_at) / RFU MAGEB2 (11727129_at) / Fold change /veh MAGEB2 (11727129_at) / RFU TMEM200A (11744735_a_at) / Fold change /veh TMEM200A (11744735_a_at) / RFU CCDC152 (11751479_a_at) / Fold change /veh CCDC152 (11751479_a_at) / RFU FAM211A (11726209_a_at) / Fold change /veh FAM211A (11726209_a_at) / RFU RGS16 (11746705_a_at) / Fold change /veh RGS16 (11746705_a_at) / RFU VCAN (11755009_s_at) / Fold change /veh VCAN (11755009_s_at) / RFU RHOB (11743442_s_at) / Fold change /veh RHOB (11743442_s_at) / RFU RGS16 (11720943_a_at) / Fold change /veh RGS16 (11720943_a_at) / RFU RGS16 (11720944_at) / Fold change /veh RGS16 (11720944_at) / RFU, VPS4B / Fold change vs veh, VPS4B / RFU, CREB1 / Fold change vs veh, CREB1 / RFU, DNAJC13 / Fold change vs veh, DNAJC13 / RFU, GNAQ / Fold change vs veh, GNAQ / RFU, CDK5R1 / Fold change vs veh, CDK5R1 / RFU, ZRANB3 / Fold change vs veh, ZRANB3 / RFU, CUL4A / Fold change vs veh, CUL4A / RFU, CCNY / Fold change vs veh, CCNY / RFU, UFL1 / Fold change vs veh, UFL1 / RFU, COG3 / Fold change vs veh, COG3 / RFU, DIAPH2 / Fold change vs veh, DIAPH2 / RFU, SKA2 / Fold change vs veh, SKA2 / RFU, AFF3 / Fold change vs veh, AFF3 / RFU, LMF1 / Fold change vs veh, LMF1 / RFU, IPO11 / Fold change vs veh, IPO11 / RFU, DFFB / Fold change vs veh, DFFB / RFU, FOXP1 / Fold change vs veh, FOXP1 / RFU, CARD8 / Fold change vs veh, CARD8 / RFU, STRN3 / Fold change vs veh, STRN3 / RFU, ADK / Fold change vs veh, ADK / RFU, RASSF2 / Fold change vs veh, RASSF2 / RFU, WIPF1 / Fold change vs veh, WIPF1 / RFU, LARP1B / Fold change vs veh, LARP1B / RFU, RASA1 / Fold change vs veh, RASA1 / RFU, RB1 / Fold change vs veh, RB1 / RFU, PPFIA1 / Fold change vs veh, PPFIA1 / RFU, MAT2A / Fold change vs veh, MAT2A / RFU, CCT5 / Fold change vs veh, CCT5 / RFU, WDR92 / Fold change vs veh, WDR92 / RFU, CUX1 / Fold change vs veh, CUX1 / RFU, TTC7A / Fold change vs veh, TTC7A / RFU, TMEM135 / Fold change vs veh, TMEM135 / RFU, DEPTOR / Fold change vs veh, DEPTOR / RFU, CPM / Fold change vs veh, CPM / RFU, DNAJB6 / Fold change vs veh, DNAJB6 / RFU, CACNA2D3 / Fold change vs veh, CACNA2D3 / RFU, DTX4 / Fold change vs veh, DTX4 / RFU, TFCP2 / Fold change vs veh, TFCP2 / RFU, GMCL1 /// GMCL1P1 / Fold change vs veh, GMCL1 /// GMCL1P1 / RFU, AEBP2 / Fold change vs veh, AEBP2 / RFU, SNHG1 /// SNORD22 /// SNORD25 /// SNORD26 /// SNORD27 /// SNORD28 /// SNORD29 /// SNORD31 / Fold change vs veh, SNHG1 /// SNORD22 /// SNORD25 /// SNORD26 /// SNORD27 /// SNORD28 /// SNORD29 /// SNORD31 / Fold change (Aza/veh), C12orf56 (ProbeSet 11735607_a_at) / Fold change (ACY-1035/veh), C12orf56 (ProbeSet 11735607_a_at) / Fold change (Aza/veh), FGFR1OP (ProbeSet 11751329_s_at) / Fold change (ACY-1035/veh), FGFR1OP (ProbeSet 11751329_s_at) / Fold change (Aza/veh), VPS36 (ProbeSet 11739960_a_at) / Fold change (ACY-1035/veh), VPS36 (ProbeSet 11739960_a_at) / RFU SYPL1 (11715823_x_at) / Fold change /veh SYPL1 (11715823_x_at) / RFU IGFBP7 (11715501_s_at) / Fold change /veh IGFBP7 (11715501_s_at) / RFU REEP3 (11722064_at) / Fold change /veh REEP3 (11722064_at) / RFU IGLL1 (11728026_x_at) / Fold change /veh IGLL1 (11728026_x_at): dose or concentration left out as unconfirmed
Details: MV-4-11 cells, 48 hours

Compound: Nc1ccc(-c2cccs2)cc1NC(=O)c1ccc2c(c1)cc(C1CC1)n2CCN1CCOCC1 [ACY-1035]
- RFU FAM212B (11763350_a_at): 31.32 RFU
